Measured values as given in PMC7269481, “ZN148 Is a Modular Synthetic Metallo-β-Lactamase Inhibitor That Reverses Carbapenem Resistance in Gram-Negative Pathogens In Vivo” (Antimicrobial Agents and Chemotherapy, 2020).
Like-named read-outs stand apart in the source and are kept apart here.

What was measured:
[1] = test system: MBL-producing P. aeruginosa clinical strains; assay: Carbapenem MIC, MBL-producing P. aeruginosa; type: cell-based; conditions: 50 μM ZN148; n = 52
Experimental: (§1) MICs of carbapenems alone and in combination with inhibitors were determined by broth microdilution according to the Clinical and Laboratory Standards Institute (CLSI) guidelines ([48]) using either premade plates (TREK Diagnostic Systems/Thermo Fisher Scientific, East Grinstead, United Kingdom) with meropenem or in-house-prepared plates with meropenem, imipenem, and doripenem. ZN148 and other inhibitors were tested at a fixed concentration of 50 μM. Cation-adjusted Mueller-Hinton medium (TREK Diagnostic Systems/Thermo Fisher Scientific; Becton Dickinson, Franklin Lakes, NJ) were used as growth medium. The plates were incubated for 20 h at 37°C. ZN148, ZN222, ZN223, ZN228, and TPA were initially tested in combination with meropenem using two indicator strains: NDM-1-producing K. pneumoniae ([49], [50]) and VIM-2-producing P. aeruginosa ([51]). The activity of ZN148 were subsequently tested against two extended strain collections: (i) in combination with meropenem against MBL-producing Enterobacterales (n = 62), MBL-producing P. aeruginosa (n = 9) and MBL- and class D carbapenemase-coproducing Enterobacterales (n = 5) from the strain collection at the Norwegian National Advisory Unit on Detection of Antimicrobial Resistance and (ii) in combination with meropenem, imipenem, and doripenem against globally collected MBL-producing E. coli (n = 87), K. pneumoniae (n = 85), P. aeruginosa (n = 52), and A. baumannii (n = 6), MBL- and class A/D carbapenemase-coproducing E. coli (n = 11), K. pneumoniae (n = 15) and A. baumannii (n = 7) at IHMA Europe, Sàrl, Switzerland. E. coli ATCC 25922 and P. aeruginosa ATCC 27853 were used as quality control strains. The MBL inhibitors were also tested for intrinsic antibacterial activity against the strains.

VIM-2 = molecular target: T1, VIM-2 (Escherichia coli, UniProt Q5U7L7); type: biochemical
T1 construct: made in house
Experimental: For reversibility of enzyme activity after incubation with ZN148, 3 ml of VIM-2 or NDM-1 was diluted with or without ZN148 in Chelex HEPES buffer (pH 7.5) and subsequently incubated for 1 h on ice. Then, 2.5 ml of each solution was loaded onto an equilibrated PD-10 column (GE Healthcare, Pittsburgh, PA), washed with 1 ml, and eluted with 1.5 ml of Chelex HEPES buffer (pH 7.5), respectively. Samples spiked and not spiked with inhibitor were diluted to a final enzyme concentration of 1 nM VIM-2 and 3 nM NDM-1. The initial reaction velocity was determined by adding nitrocefin (Merck) for VIM-2 or imipenem (Sigma-Aldrich) for NDM-1 at final concentrations of 50 and 100 μM, respectively. The initial enzyme reactions were recorded at 25°C. Inhibitor and enzyme alone were included as controls. All measurements were performed at least in duplicates. For enzyme restorability, pre- and postcolumn samples were supplemented with ZnSO4 (Sigma-Aldrich) to a final concentration of 100 μM and allowed to incubate for 5 min at 25°C. The initial enzyme velocity was then determined as described above.

[2] = test system: 173 MBL-producing E. coli and K. pneumoniae strains; assay: Doripenem and imipenem MIC, MBL-producing E. coli and K. pneumoniae subset; type: cell-based; conditions: 50 μM ZN148; 173 strains
Experimental: (§2) MICs of carbapenems alone and in combination with inhibitors were determined by broth microdilution according to the Clinical and Laboratory Standards Institute (CLSI) guidelines ([48]) using either premade plates (TREK Diagnostic Systems/Thermo Fisher Scientific, East Grinstead, United Kingdom) with meropenem or in-house-prepared plates with meropenem, imipenem, and doripenem. ZN148 and other inhibitors were tested at a fixed concentration of 50 μM. Cation-adjusted Mueller-Hinton medium (TREK Diagnostic Systems/Thermo Fisher Scientific; Becton Dickinson, Franklin Lakes, NJ) were used as growth medium. The plates were incubated for 20 h at 37°C. ZN148, ZN222, ZN223, ZN228, and TPA were initially tested in combination with meropenem using two indicator strains: NDM-1-producing K. pneumoniae ([49], [50]) and VIM-2-producing P. aeruginosa ([51]). […]

E. coli with IMP (n=3) = assay: Meropenem MIC distribution, E. coli with IMP; type: cell-based; conditions: MEM alone or +50 µM ZN148
Experimental: as §2

[3] = test system: class A carbapenemase (KPC)-producing E. coli; assay: Carbapenem MIC, class A carbapenemase-producing E. coli; type: cell-based; conditions: carbapenem alone or with 50µM ZN148
Experimental: as §1

[4] = test system: class A carbapenemase (KPC)-producing E. cloacae; assay: Carbapenem MIC, class A carbapenemase-producing E. cloacae; type: cell-based; conditions: carbapenem alone or with 50µM ZN148
Experimental: as §1

[5] = test system: K. pneumoniae with NDM (n=95); assay: Meropenem MIC distribution, K. pneumoniae with NDM; type: cell-based; conditions: MEM alone or +50 µM ZN148
Experimental: as §1

[6] = test system: M. morganii co-producing MBLs and class A/D serine carbapenemases; assay: Meropenem MIC, M. morganii co-producing NDM-1 and OXA-48; type: cell-based; conditions: Morganella morganii; NDM-1 + OXA-48 strain; meropenem alone or with 50µM ZN148
Experimental: as §2

E. coli with NDM (n=102) = assay: Meropenem MIC distribution, E. coli with NDM; type: cell-based; conditions: MEM alone or +50 µM ZN148
Experimental: as §1

[7] = test system: A. baumannii co-producing MBLs and class A/D serine carbapenemases; assay: Carbapenem MIC, A. baumannii co-producing NDM-1 and class D carbapenemases; type: cell-based; conditions: carbapenem alone or with 50µM ZN148, one value per strain
Experimental: as §1

[8] = test system: Other Enterobacterales with MBLs (n=10); assay: Meropenem MIC distribution, other Enterobacterales with MBLs; type: cell-based; conditions: MEM alone or +50 µM ZN148
Experimental: as §1

[9] = KPC-2 strains, one value per strain, listed as MEM

CN(C[C@H](O)[C@@H](O)[C@H](O)[C@H](O)CO)C(=O)c1ccc(CN(Cc2ccccn2)Cc2ccccn2)nc1 [ZN148]
strains with restored clinical susceptibility, in combination with doripenem [1]: 15%
strains with restored clinical susceptibility, in combination with imipenem [1]: 25%
strains with restored clinical susceptibility, in combination with meropenem [1]: 17%
mode of inhibition (VIM-2): irreversible
MBL activity restored by addition of exogenous zinc, compared to untreated control (VIM-2; after incubation with inhibitor and its removal (PD-10), 100 μM ZnSO4): ~30%
strains with doripenem MIC reduced to susceptible levels [2]: > 99%
strains with imipenem MIC reduced to susceptible levels [2]: > 99%

C[C@@H](O)[C@H]1C(=O)N2C(C(=O)O)=C(S[C@@H]3CN[C@H](C(=O)N(C)C)C3)[C@H](C)[C@H]12 [meropenem]
No. of strains with indicated MIC (E. coli with IMP (n=3); MIC 4 mg/L): 1
No. of strains with indicated MIC (E. coli with IMP (n=3); MIC 16 mg/L): 2
MIC ([3]; Escherichia coli, KPC-2 strains, one value per strain, read-out: MIC): 8 µg/mL
MIC ([3]; Escherichia coli, KPC-3 strain, read-out: MIC): 2 µg/mL
MIC [3, 9]: 4 µg/mL
MIC ([4]; Enterobacter cloacae, KPC-2 strains, one value per strain, read-out: MIC): 16 µg/mL
MIC ([4]; Enterobacter cloacae, KPC-3 strain, read-out: MIC): 2 µg/mL
MIC [4, 9]: 32 µg/mL
No. of strains with indicated MIC ([5]; MIC 2 mg/L): 1
No. of strains with indicated MIC ([5]; MIC 8 mg/L): 1
No. of strains with indicated MIC ([5]; MIC 16 mg/L): 3
No. of strains with indicated MIC ([5]; MIC 32 mg/L): 10
No. of strains with indicated MIC ([5]; MIC ≥64 mg/L): 80
MIC [6]: 8 µg/mL
No. of strains with indicated MIC (E. coli with NDM (n=102); MIC 1 mg/L): 2
No. of strains with indicated MIC (E. coli with NDM (n=102); MIC 4 mg/L): 6
No. of strains with indicated MIC (E. coli with NDM (n=102); MIC 8 mg/L): 2
No. of strains with indicated MIC (E. coli with NDM (n=102); MIC 16 mg/L): 8
No. of strains with indicated MIC (E. coli with NDM (n=102); MIC 32 mg/L): 19
No. of strains with indicated MIC (E. coli with NDM (n=102); MIC ≥64 mg/L): 65
MIC ([7]; NDM-1 + OXA-23-like strains): > 64 µg/mL
MIC ([7]; NDM-1 + OXA-24-like, OXA-58-like strains): > 64 µg/mL
No. of strains with indicated MIC ([8]; MIC 4 mg/L): 1
No. of strains with indicated MIC ([8]; MIC 8 mg/L): 2
No. of strains with indicated MIC ([8]; MIC 16 mg/L): 3
No. of strains with indicated MIC ([8]; MIC 32 mg/L): 2
No. of strains with indicated MIC ([8]; MIC ≥64 mg/L): 2
